Measured values taken from a melting point compilation (Tetko et al.).

Details: a range is the spread between reports

SMILES | melting point [°C]
N#CNC(=N)N | 208 to 211
Cc1cccc(C)c1 | -48 to -47
CCCCCCCCl | -70 to -69.5
CCO[Si](OCC)(OCC)OCC | -86 to -82.5
CCSC | -106
ClCC(Cl)Cl | -37 to -35
Cc1ccccc1C | -25.2 to -25
CCOS(=O)(=O)c1ccc(C)cc1 | 32 to 34.5
CC(C)=C(C)C(C)C | -113
CC(C)C(=O)O | -47 to -46
O=P(O)(O)CP(=O)(O)O | 200 to 203
CC(C)(C)O | 25 to 26
O=C(O)CCC(=O)C(=O)O | 115 to 116
CC(=O)OC(C)C | -73.4 to -73
Oc1cc(Cl)ccc1Oc1ccc(Cl)cc1Cl | 55.6 to 57
CN(C)c1ccc(N(C)C)cc1 | 50 to 51
O=CO | 8 to 8.32
O=[N+]([O-])c1cccc(Cl)c1Cl | 61.5 to 62
CC(=O)NO | 88 to 90.5
C1CCCCC1 | 6.45 to 7
O=[N+]([O-])c1cc(Cl)ccc1Cl | 55 to 56

SMILES | melting point [°C]
C=CCC1(C(C)C)C(=O)NC(=O)NC1=O | 141 to 143
O=[N+]([O-])NC1=NCCN1Cc1ccc(Cl)nc1 | 140 to 144
O=C[C@H](O)[C@@H](O)[C@@H](O)[C@H](O)CO | 166 to 167
ClCCCCl | -100 to -99.5
CC(=O)OC1CCC2(C)C(CC(=O)C3C4CCC(=O)C4(C)CCC32)C1 (stereo unspecified) | 164 to 165
Cc1cccc2c(C)cccc12 | 80 to 82
Cc1cccc(C)c1N | 8 to 12
Cc1cccc(N)c1 | -31.3 to -30
CC(C)(C)C | -17 to -16.4
O=C(c1ccc(Cl)cc1)c1ccc(Cl)cc1 | 145 to 148
Oc1ccccc1Cl | 7 to 9.8
CCCCCCCCCCCCCCCCCCCCCCCCCCCC | 62 to 64.5
O=C(O)Cc1ccccc1 | 76 to 79
Nc1ccccc1 | -6.3 to -6
Oc1ccc(Cl)c(Cl)c1 | 66 to 68
CCCCC1CCCCC1 | -78 to -74.7
CCCCCCCCCCC=O | -4 to 0
CCCCNCCCC | -62 to -60
CCCCBr | -112
C=CCCC(=O)O | -22.5 to -22
N#CCc1ccc(CC#N)cc1 | 95 to 96

SMILES | melting point [°C]
CCOc1cc(C=O)ccc1O | 77 to 77.5
CON(C)C(=O)Nc1ccc(Cl)c(Cl)c1 | 93 to 93.5
OCCCCO | 16 to 20.4
CCCCCCC=O | -43.3 to -43
CCCC(C)(C)C | -124
O=C(O)CBr | 47 to 50
CCCCl | -123 to -122
CCC(Br)CBr (stereo unspecified) | -65.4 to -65
FC(F)(F)C(F)(F)C(F)(F)C(F)(F)C(F)(F)C(F)(F)C(F)(F)C(F)(F)F | -25 to -23.2
CCOCOCC | -66.5 to -66
CCC1CCCCC1 | -111
N#Cc1ccccc1Cl | 45 to 46.3
CC(Oc1cccc(Cl)c1)C(=O)O (stereo unspecified) | 113 to 115
CCCCCCCCCCCCCCCCCCCCCCCCCCCCCCCCCCCCCCCC | 81 to 82
CCOC(=O)CCl | -26 to -21
O=C1CCO1 | -34 to -33.4
CN1CC=C(c2ccccc2)CC1 | 38.5 to 40
CCCCCC(=O)O | -4 to -1.9
CCCCCCCCCCCCCCCCCCN | 52.9 to 56
CCCCC(CC)COP(=O)(OCC(CC)CCCC)OCC(CC)CCCC (stereo unspecified) | -74 to -70
c1ccncc1 | -42 to -41.6

SMILES | melting point [°C]
CCCCCCCCCCCCCCCCCCS | 30 to 32
CC(C)(C)C#N | 15 to 17
C1CNCCNC1 | 41 to 43.5
NC(=O)c1ccc(N)nc1 | 246 to 247
N#CC1=C(C#N)C(=O)C(Cl)=C(Cl)C1=O | 214 to 215
O=S(=O)(Cl)c1ccccc1 | 14.5 to 15
BrCCCCBr | -20 to -16.5
BrCc1ccc(Br)cc1 | 62 to 63
CC(C)(Br)C(=O)O | 44 to 48.5
OCCN1CCCCC1 | 16 to 17.9
Clc1ccccc1 | -46 to -45
CCCCCCCCCC(=O)Cl | -35 to -34.5
COC(=O)c1ccccc1N | 24 to 24.5
CCC(O)(CC)CC | -13 to -12.5
CC12CCC(CC1)C(C)(C)O2 | 1 to 1.5
CC(C)[N+](=O)[O-] | -93 to -91.3
N#CCCC(Br)(C#N)CBr (stereo unspecified) | 50 to 52
C/C=C/c1ccccc1 | -29.3 to -27.1
CCCCC#N | -96.2 to -96
C=CC(=O)OCC | -71.2 to -71
O=C(CCl)CCl | 44 to 45

The remaining lines, values ahead:

melting point [°C] | SMILES
174 to 175 | Cc1ccnc(-c2cc(C)ccn2)c1
140 to 142 | NC(=O)c1ccccc1O
37 to 40 | O=C1CCCCC1=O
27 to 29 | Brc1cc(Br)c(Br)s1
96.5 to 97 | CCCCCCCCCCCCOC(=O)c1cc(O)c(O)c(O)c1
62 to 67 | COC(=O)c1ccc(C#N)cc1
74 to 75 | O=C1c2ccccc2C(=O)N1CCCBr
44.5 to 45 | CC(=O)Oc1cccc2ccccc12
36 to 37.5 | N#Cc1cccc2ccccc12
300 to 302 | O=c1c(-c2ccc(O)cc2)coc2cc(O)cc(O)c12
-39.4 to -38 | c1ccsc1
127 to 131 | COC(=O)c1ccc(O)cc1
143 to 144 | O=C(O)c1c(Cl)cccc1Cl
44 to 45 | CCOC(=O)c1ccc(C(=O)OCC)cc1
-114 | CCO
55 to 57 | COc1ccc(O)cc1
191 to 192 | NC(=O)c1ccc(Br)cc1
-31.3 to -31 | Ic1ccccc1
84 to 88 | Oc1ccc(NCc2ccccc2)cc1
184 to 187 | O=C(O)c1ccccc1Nc1ccccc1
57 to 58 | O=C=Nc1ccc([N+](=O)[O-])cc1
113 to 115 | Oc1cc(O)c(Cl)cc1Cl
4.58 to 5 | Cc1ccc(Cc2ccccc2)cc1

melting point [°C] | SMILES
154 to 157 | O=C1OC2(OC=C(c3ccccc3)C2=O)c2ccccc21 (stereo unspecified)
126 to 129 | Nc1ccc(O)c([N+](=O)[O-])c1
49 to 50 | COC(=O)c1ccc(OC)cc1
40 to 42 | O=C1CCc2ccccc21
125 to 128 | O=C1CSC(=O)N1
170 | Cc1cc(C(=O)O)ccc1N
72 to 74 | O=[N+]([O-])c1ccccc1CO
28 to 30 | c1ccc2nccnc2c1
42 to 43 | COC(=O)c1cc(OC)cc(OC)c1
181 to 182 | NC(=O)c1cccs1
-34 to -29 | Nc1ccccc1C(F)(F)F
122 to 126 | O=C1CCN(c2ccccc2)N1
96 to 98 | NCCS
225 to 228 | O=C(O)c1ccc(-c2ccccc2)cc1
59 to 64 | Cc1cc(O)ccc1Br
68 to 71 | O=Cc1ccc2ccccc2n1
194 to 195 | c1ccc2nc(-c3ccc4ccccc4n3)ccc2c1
29 to 31 | Cc1ccc(S)c(S)c1
5 to 6 | Cc1cc(Br)ccc1Br
53 to 56 | CC(=O)c1ccc2ccccc2c1
79 to 83 | O=C(Oc1ccccc1)Oc1ccccc1
64 to 64.7 | Cc1cc(Br)ccc1O
161 to 162 | NC(=O)c1ccc(O)cc1

melting point [°C] | SMILES
82 to 84 | Cc1c(Br)cc(Br)c(O)c1Br
145 to 150 | Oc1ccncc1
177 to 178 | Cc1ccc(C(=O)O)c(O)c1
95 to 96 | Oc1cccc2ccccc12
348 | O=c1[nH]c(=O)c2nccnc2[nH]1
7.5 to 8 | CC1=CC(=O)OC1=O
-185 | C=CC
55 to 56 | Cc1cc(C)c(S(=O)(=O)Cl)c(C)c1
26 to 26.5 | c1ccc2cnccc2c1
151 to 152 | COc1cccc(C(=O)O)c1O
158 to 159 | O=C(O)c1c(F)cccc1F
-42.2 to -40 | Fc1ccccc1
105 to 107 | CCCCC1C(=O)N(c2ccccc2)N(c2ccccc2)C1=O
42 to 43 | O=C=Nc1ccc(Cl)c(Cl)c1
169 to 170 | O=C(O)c1ccccc1-c1ccc(C(F)(F)F)cc1
67 to 69 | COC(=O)c1cc(Cl)ccc1N
156 to 158 | NNC(=O)c1cccc(Br)c1
-61.5 to -61 | C=C1CCC2CC1C2(C)C (stereo unspecified)
-91 to -90.5 | CCc1ccncc1
31 to 32 | CC(=O)c1ccc(C(F)(F)F)cc1
26 to 27.5 | CC(=O)c1ccc(C)s1
-110 | CCC1=CCCCC1
94 to 97.5 | O=C=Nc1ccc(N=C=O)cc1

melting point [°C] | SMILES
156 to 160 | CC(=O)Nc1ccc(C=O)cc1
179 to 182 | NC(=S)NS(=O)(=O)c1ccc(N)cc1
93.5 to 98 | N#Cc1ccccc1O
28 to 29 | CCOC(=O)C(C(=O)OCC)C(=O)OCC
-47 to -43.1 | CCCCCCCC(=O)OCC
256 to 260 | CC(=O)Nc1ccc(C(=O)O)cc1
97 to 98 | OCc1c(Cl)cccc1Cl
-14.4 to -14 | CCCCCCCCCCc1ccccc1
145 to 146 | Cc1cccc(C(=O)O)c1C
135 to 136 | O=Cc1ccc(O)cc1O
235 to 238 | Cn1c(=O)c2c(ncn2C)n(C)c1=O
173 to 178 | NC(=O)c1ccc(Cl)cc1
149 to 152 | CC(=O)Nc1ccc(C)cc1
316 to 317 | Cc1c[nH]c(=O)[nH]c1=O
-13.5 to -13 | Cc1ccc(Cl)cc1Cl
173 to 176 | CC(=O)c1ccc(OCC(=O)O)cc1
19 to 20 | COc1ccc(OC)c(C(C)=O)c1
32 to 33 | COC(=O)c1cccc(Br)c1
4 to 6 | Cc1cccc(Cl)c1Cl
58 to 59 | OCCc1c[nH]c2ccccc12
58.5 to 59.5 | COC1=C(OC)C(=O)C(C)=CC1=O
105 to 106 | O=C(NCc1ccccc1)c1ccccc1
36 to 40.4 | Ic1cccc(I)c1
